The source made the active and inactive calls. The calls are words filed in the database; no cut-off is given here.
Legend:
[1] = biological target: T1, Histone-lysine N-methyltransferase EZH2 (Homo sapiens, UniProt Q15910); experiment: Inhibition of EZH2 (unknown origin) by radiometric assay
Target sequence in this assay (Q15910 whole entry): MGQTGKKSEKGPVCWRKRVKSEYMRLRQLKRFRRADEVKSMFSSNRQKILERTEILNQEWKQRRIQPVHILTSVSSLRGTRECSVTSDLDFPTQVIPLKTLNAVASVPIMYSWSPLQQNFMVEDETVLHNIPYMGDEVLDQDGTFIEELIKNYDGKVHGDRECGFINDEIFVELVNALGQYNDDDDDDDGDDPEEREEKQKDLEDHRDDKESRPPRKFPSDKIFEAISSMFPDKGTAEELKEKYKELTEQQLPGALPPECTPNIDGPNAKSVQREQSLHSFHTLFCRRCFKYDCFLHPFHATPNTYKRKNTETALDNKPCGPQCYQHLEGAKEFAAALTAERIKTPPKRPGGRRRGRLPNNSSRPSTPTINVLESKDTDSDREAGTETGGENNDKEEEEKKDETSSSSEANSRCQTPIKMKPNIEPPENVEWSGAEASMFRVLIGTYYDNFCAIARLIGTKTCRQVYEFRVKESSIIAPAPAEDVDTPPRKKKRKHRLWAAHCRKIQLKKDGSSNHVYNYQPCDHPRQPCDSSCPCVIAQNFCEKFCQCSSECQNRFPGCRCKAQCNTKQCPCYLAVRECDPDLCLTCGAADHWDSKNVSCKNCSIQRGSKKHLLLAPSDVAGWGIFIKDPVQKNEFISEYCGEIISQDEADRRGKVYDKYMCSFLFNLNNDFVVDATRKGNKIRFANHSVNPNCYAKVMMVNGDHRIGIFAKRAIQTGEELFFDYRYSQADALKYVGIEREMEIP

[2] = biological target: Bromodomain-containing protein 4 (Homo sapiens, UniProt O60885); experiment: Inhibition of BRD4 (unknown origin) by HTRF analysis
[3] = biological target: T2, Histone-lysine N-methyltransferase EZH1 (Homo sapiens, UniProt Q92800); experiment: Inhibition of EZH1 (unknown origin) by radiometric assay
T2 sequence (Q92800 whole entry): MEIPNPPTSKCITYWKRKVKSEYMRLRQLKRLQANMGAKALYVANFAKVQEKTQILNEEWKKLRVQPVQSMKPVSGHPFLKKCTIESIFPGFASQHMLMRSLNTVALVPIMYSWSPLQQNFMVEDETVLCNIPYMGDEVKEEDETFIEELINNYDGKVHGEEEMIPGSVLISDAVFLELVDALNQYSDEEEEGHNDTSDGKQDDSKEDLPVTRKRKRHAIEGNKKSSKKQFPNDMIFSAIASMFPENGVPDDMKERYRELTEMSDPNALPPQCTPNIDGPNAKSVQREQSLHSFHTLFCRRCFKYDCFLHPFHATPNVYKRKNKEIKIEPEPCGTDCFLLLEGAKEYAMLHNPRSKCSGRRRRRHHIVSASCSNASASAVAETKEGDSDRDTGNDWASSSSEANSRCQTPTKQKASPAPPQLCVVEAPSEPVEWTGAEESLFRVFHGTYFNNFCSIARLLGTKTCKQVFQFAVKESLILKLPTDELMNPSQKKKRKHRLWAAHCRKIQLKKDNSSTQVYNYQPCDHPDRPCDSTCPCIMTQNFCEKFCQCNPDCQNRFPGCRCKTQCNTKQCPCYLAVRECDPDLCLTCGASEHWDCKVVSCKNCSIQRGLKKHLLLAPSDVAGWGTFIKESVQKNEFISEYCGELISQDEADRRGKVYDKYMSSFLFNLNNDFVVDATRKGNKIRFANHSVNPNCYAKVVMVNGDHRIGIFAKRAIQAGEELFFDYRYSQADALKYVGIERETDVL

T-24 = experiment: Antiproliferative activity against human T24 cells assessed as inhibition of cell proliferation incubated for 6 days by CCK8 assay; assay type: functional, cell-based; settings: time 6.0 day
MDA-MB-231 [4] = experiment: Antiproliferative activity against human MDA-MB-231 cells assessed as inhibition of cell proliferation incubated for 6 days by CCK8 assay; assay type: functional, cell-based; settings: time 6.0 day
PANC-1 = experiment: Antiproliferative activity against human PANC-1 cells assessed as inhibition of cell proliferation incubated for 6 days by CCK8 assay; assay type: functional, cell-based; settings: time 6.0 day
95-D = experiment: Antiproliferative activity against human 95-D cells assessed as inhibition of cell proliferation incubated for 6 days by CCK8 assay; assay type: functional, cell-based; settings: time 6.0 day
[5] = biological target: T1, Histone-lysine N-methyltransferase EZH2; experiment: Inhibition of EZH2 in human MDA-MB-231 cells assessed as increase in H3K27ac level at 5 uM by fluorescence based analysis; assay type: cell-based
Target sequence in this assay (Q15910 whole entry, looked up): as the sequence (Q15910 whole entry) above

MDA-MB-231 [6] = experiment: Induction of apoptosis in human MDA-MB-231 cells assessed as viable cells at 5 uM incubated for 48 hrs by Annexin V-FITC/PI staining based flow cytometric analysis (reference value: 97.63%); assay type: functional; settings: read-out: Activity
MDA-MB-231 [7] = experiment: Induction of apoptosis in human MDA-MB-231 cells assessed as necrotic cells at 5 uM incubated for 48 hrs by Annexin V-FITC/PI staining based flow cytometric analysis (reference value: 0.63%); assay type: functional
MDA-MB-231 [8] = experiment: Induction of apoptosis in human MDA-MB-231 cells assessed as early apoptotic cells at 1 uM incubated for 48 hrs by Annexin V-FITC/PI staining based flow cytometric analysis (reference value: 0.69%); assay type: functional
MDA-MB-231 [9] = experiment: Induction of apoptosis in human MDA-MB-231 cells assessed as late apoptotic cells at 1 uM incubated for 48 hrs by Annexin V-FITC/PI staining based flow cytometric analysis (reference value: 1.06%); assay type: functional
MDA-MB-231 [10] = experiment: Induction of apoptosis in human MDA-MB-231 cells assessed as viable cells at 2.5 uM incubated for 48 hrs by Annexin V-FITC/PI staining based flow cytometric analysis (reference value: 97.63%); assay type: functional; settings: read-out: Activity
BXPC-3 [11] = experiment: Induction of apoptosis in human BXPC-3 cells assessed as necrotic cells at 5 uM incubated for 48 hrs by Annexin V-FITC/PI staining based flow cytometric analysis (reference value: 1.65 %); assay type: functional
BXPC-3 [12] = experiment: Induction of apoptosis in human BXPC-3 cells assessed as late apoptotic cells at 1 uM incubated for 48 hrs by Annexin V-FITC/PI staining based flow cytometric analysis (reference value: 4.38 %); assay type: functional
BXPC-3 [13] = experiment: Induction of apoptosis in human BXPC-3 cells assessed as necrotic cells at 1 uM incubated for 48 hrs by Annexin V-FITC/PI staining based flow cytometric analysis (reference value: 1.65 %); assay type: functional
BXPC-3 [14] = experiment: Induction of apoptosis in human BXPC-3 cells assessed as late apoptotic cells at 2.5 uM incubated for 48 hrs by Annexin V-FITC/PI staining based flow cytometric analysis (reference value: 4.38 %); assay type: functional
MDA-MB-231 [15] = experiment: Inhibition of cell proliferation in human MDA-MB-231 cells assessed as decrease in c-Myc mRNA level at 5 uM incubated for 48 hrs by qRT-PCR analysis; assay type: functional, cell-based
BXPC-3 [16] = experiment: Inhibition of cell proliferation in human BXPC-3 cells assessed as decrease in c-Myc mRNA level at 5 uM incubated for 48 hrs by qRT-PCR analysis; assay type: functional, cell-based
[17] = Tmax in ICR mouse at 60 mg/kg, ip measured upto 24 hrs by LC-MS/MS analysis; assay type: ADME, organism-based; settings: in vivo
[18] = Protein binding in mouse plasma assessed as bound fraction at 2 uM incubated for 5 hrs by equilibrium based LC-MS/MS analysis; assay type: ADME, cell-free; settings: read-out: PPB (converted)
BXPC-3 [19] = experiment: Antitumor activity against human BXPC-3 cells xenografted in Balb/c nude mouse assessed as reduction in tumor growth at 30 mg/kg, ip administered daily for 30 days; assay type: functional, organism-based; settings: time 30.0 day
Mus musculus = experiment: In vivo inhibition of EZH2 in Balb/c nude mouse xenografted with human BXPC-3 cells assessed as reduction in H3K27me3 level in tumor at 60 mg/kg, ip administered daily for 30 days by IHC analysis; assay type: functional, organism-based; settings: time 30.0 day

## CCC(C)n1ccc2c(C(=O)NCc3c(C)cc(C)[nH]c3=O)cc(-c3cn(C)c(=O)c4[nH]ccc34)cc21 (stereo not drawn)
[1]
  IC50: 2.3 nM
[2]
  IC50: 147 nM
[3]
  IC50: 2580 nM
T-24
  Activity: Active
MDA-MB-231 [4]
  Activity: Active
PANC-1
  Activity: Active
95-D
  Activity: Active
[5]
  inhibition: Active
MDA-MB-231 [6]
  viability at 5 µM: 81.1%
MDA-MB-231 [7]
  Activity: 1.91%
MDA-MB-231 [8]
  Activity: 2.87%
MDA-MB-231 [9]
  Activity: 1.36%
MDA-MB-231 [10]
  viability at 2.5 µM: 87.8%
BXPC-3 [11]
  Activity: 3.35%
BXPC-3 [12]
  Activity: 7.61%
BXPC-3 [13]
  Activity: 2.94%
BXPC-3 [14]
  Activity: 16.95%
MDA-MB-231 [15]
  inhibition: Active
BXPC-3 [16]
  inhibition: Active
[17]
  Tmax: 4.98 min
[18]
  fraction unbound at 5 h, 2 µM: 0.009
BXPC-3 [19]
  Activity: inactive
Mus musculus
  inhibition: Active

— ChEMBL document CHEMBL5316343, “Design, Synthesis, and Biological Evaluation of a Potent Dual EZH2-BRD4 Inhibitor for the Treatment of Some Solid Tumors” (J Med Chem, 2023)
